Molecular target: T1, hTRESK (TWIK-related spinal cord K+ channel, K2P18.1) (Homo sapiens, UniProt Q7Z418)
T1 construct: gene KCNK18; homodimeric hTRESK WT expressed in Xenopus laevis oocytes
T1 sequence (Q7Z418 1-384): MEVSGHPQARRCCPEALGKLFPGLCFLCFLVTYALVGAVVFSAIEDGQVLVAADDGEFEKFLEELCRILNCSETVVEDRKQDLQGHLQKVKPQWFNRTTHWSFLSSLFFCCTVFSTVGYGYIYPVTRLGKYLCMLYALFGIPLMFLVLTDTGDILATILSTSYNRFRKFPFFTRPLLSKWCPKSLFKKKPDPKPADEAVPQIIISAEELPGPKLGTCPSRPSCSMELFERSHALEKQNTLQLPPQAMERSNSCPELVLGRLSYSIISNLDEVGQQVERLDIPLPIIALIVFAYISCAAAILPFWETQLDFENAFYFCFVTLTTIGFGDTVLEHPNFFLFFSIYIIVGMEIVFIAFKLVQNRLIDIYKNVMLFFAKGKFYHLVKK
Assay: TEVC dose-response in Xenopus oocytes, supported by alanine scan
Type: cell-based

Question: With `Oc1ccc(Cl)c2cccnc12` [clx, 5-chloro-8-hydroxyquinoline] as the compound, how does the EC50 read?
Answer: 64 ± 11 µM

Reference: PMC10354012, “Cloxyquin activates hTRESK by allosteric modulation of the selectivity filter” (Communications Biology, 2023)
